Measured values published in PubChem BioAssay AID1963832 (Molecular Pharmacology Branch, DTP, NCI, 2024).

Test system: 885724-159-R-J1-PDC complex spheroid viability
Assay: Anticancer human tumor 885724-159-R-J1-PDC patient-derived pancreatic adenocarcinoma cell line growth inhibition [POLQ]
Conditions: for IC50: curve of first compound; for viability, T/C: stronger effect = lower value
Protocol: Multicellular complex tumor spheroid response to Polymerase (POL) inhibitors (novobiocin, ART-558, RP6685) in combination with a variety of drugs and investigational agents in selected tumor cell lines
The POL inhibitors (novobiocin, ART-558, and RP6685) were evaluated both individually and in combination with standard of care and investigational anticancer small molecules within a complex spheroid model of solid tumors. . Complex spheroids include a stromal component modeled by human endothelial cells (HUVEC) and fibroblasts modeled by human mesenchymal stem cells (MSCs). The concentration ranges selected for each drug and investigational agent were based upon clinically achievable concentrations if the clinical Cmax of the agent was known.
Compounds. The drugs and investigational agents: novobiocin (NSC847541), ART-558 (NSC835418), RP-6685 (NSC848927), peposertib (NSC802822), ceralasertib (NSC780249), elimusertib (NSC800525), camonsertib (NSC841442), AZD-1390 (NSC803789), olaparib (NSC753686), talazoparib (NSC767125), rucaparib (NSC756644), sotorasib (NSC818433), MRTX-1133 (NSC836407), SN-38 (NSC673596), topotecan (NSC609699), epotoside (NSC141540), doxorubicin (NSC123127), gemcitabine (NSC613327), 5-fluorouracil (NSC19893), paclitaxel (NSC125973), vemurafenib (NSC761431), MSA-2 (NSC828583), SN-011 (NSC837082), adavosertib (NSC754352), prexasertib (NSC758257), carboplatin (NSC241240) and oxaliplatin (NSC266046), were obtained from the National Cancer Institute (NCI) Developmental Therapeutics Program Chemical Repository (21). The FDA-approved anticancer drug set is available from the Developmental Therapeutics Program at https://dtp.cancer.gov/organization/dscb/obtaining/. […] The stock solutions were prepared in dimethyl sulfoxide (DMSO, Sigma-Aldrich, St. Louis, MO, cat. D2650), except for the platinum compounds which were prepared in saline (Quality Biological, Gaithersburg, MD, cat. 114-055-101), at 800-fold the tested concentration and stored at -70 degrees C prior to their use. All drugs and investigational agents were tested over a range starting from a high concentration at or near the clinical Cmax and decreasing in half-log increments. If the clinical Cmax for an agent had not been determined, the highest concentration tested was 10 microM, except for SN-38, which was tested at a high concentration of 1 microM.
Cell Culture. All cells were maintained in an incubator at 37 degrees C and 5% CO2 with 95% humidity. The PDC lines were cultured according to standard operating procedures established by the NCI PDMR (https://pdmr.cancer.gov). Table 3 of the manuscript, lists the cell lines along with the number of the three cell types plated to form the mct-spheroids and media for tumor cell growth. After thawing, all PDC lines, except 997537-175-T-J1-PDC and 415267-285-R-J2-PDC, were cultured in Matrigel-coated flasks prepared with a working solution of 1X Ham's F-12 nutrient mix, without supplementation (Thermo Fisher Scientific, cat. 11765054), 100 U/mL penicillin-streptomycin (Thermo Fisher Scientific, cat. 15140122), and 2.5% Matrigel (Corning Inc., Corning, NY, cat. 354248) for the first three passages. The two PDC lines 997537-175-T-J1-PDC and 415267-285-R-J2-PDC were cultured on uncoated flasks. The 857933-349-R-J2-PDC line was cultured in 6C/Colon 1B media containing advanced DMEM/F-12 (Thermo Fisher Scientific, cat. 12634028), 10 mM HEPES (Thermo Fisher Scientific, cat. 15630080), 1X GlutaMAX supplement (Thermo Fisher Scientific, cat. 35050061), 0.1 mg/mL primocin (InvivoGen, San Diego, CA, cat. ant-pm-2), 10% defined fetal bovine serum, heat inactivated (HyClone Laboratories Inc., Logan, UT, cat. SH30070.03HI), 50% L-WRN conditioned media (ATCC, cat. CRL-3276), 1.25 mM N-Acetyl-L-cysteine (Sigma-Aldrich, cat. A9165), 10 mM nicotinamide (Sigma-Aldrich, cat. N0636), 1X B-27 supplement (Thermo Fisher Scientific, cat. 17504044), 1X N-2 supplement (Thermo Fisher Scientific, cat. […]

[1] = second compound 0.0316 µM, first compound 0.0316 µM
[2] = second compound 0.0316 µM, first compound 0.1 µM
[3] = second compound 0.1 µM, first compound 0.0316 µM
[4] = second compound 0.1 µM, first compound 0.1 µM
[5] = second compound 0.316 µM, first compound 0.0316 µM
[6] = second compound 0.316 µM, first compound 0.1 µM
[7] = second compound 1 µM, first compound 0.0316 µM
[8] = second compound 1 µM, first compound 0.1 µM
[9] = second compound 3.16 µM, first compound 0.0316 µM
[10] = second compound 3.16 µM, first compound 0.1 µM
[11] = second compound 10 µM, first compound 0.0316 µM
[12] = second compound 10 µM, first compound 0.1 µM
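Also: spheroids exposed to compounds for 7 days.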

For `COc1cc2cc(C(=O)CCC(=O)O)sc2cc1OC` + Cc1cccc(N(C)C(=O)C2C(O)CCN2c2nc(C)cc(C(F)(F)F)c2C#N)c1, the IC50 (second compound 0.0316 µM) was > 10 µM, the IC50 (second compound 0.1 µM) was > 10 µM and the IC50 (second compound 0.316 µM) was > 10 µM. For the same molecule, the IC50 (second compound 1 µM) was > 10 µM, the IC50 (second compound 3.16 µM) was > 10 µM and the IC50 (second compound 10 µM) was > 10 µM. The viability, T/C [1] was 108%, the viability, T/C [2] was 104% and the viability, T/C (second compound 0.0316 µM, first compound 0.316 µM) was 100%. It also gave a viability, T/C (second compound 0.0316 µM, first compound 1 µM) of 103%, a viability, T/C (second compound 0.0316 µM, first compound 3.16 µM) of 107% and a viability, T/C (second compound 0.0316 µM, first compound 10 µM) of 95.6%. For the same molecule, the viability, T/C [3] was 114%, the viability, T/C [4] was 103% and the viability, T/C (second compound 0.1 µM, first compound 0.316 µM) was 96.9%. It also gave a viability, T/C (second compound 0.1 µM, first compound 1 µM) of 104%, a viability, T/C (second compound 0.1 µM, first compound 3.16 µM) of 99.2% and a viability, T/C (second compound 0.1 µM, first compound 10 µM) of 103%. For the same molecule, the viability, T/C [5] was 99.5%, the viability, T/C [6] was 106% and the viability, T/C (second compound 0.316 µM, first compound 0.316 µM) was 89.2%. The viability, T/C (second compound 0.316 µM, first compound 1 µM) was 109%, the viability, T/C (second compound 0.316 µM, first compound 3.16 µM) was 98.4% and the viability, T/C (second compound 0.316 µM, first compound 10 µM) was 85.7%. The viability, T/C [7] was 105%, the viability, T/C [8] was 114% and the viability, T/C (second compound 1 µM, first compound 0.316 µM) was 93.1%. The viability, T/C (second compound 1 µM, first compound 1 µM) was 104%, the viability, T/C (second compound 1 µM, first compound 3.16 µM) was 105% and the viability, T/C (second compound 1 µM, first compound 10 µM) was 93.5%. For the same molecule, the viability, T/C [9] was 116%, the viability, T/C [10] was 96.5% and the viability, T/C (second compound 3.16 µM, first compound 0.316 µM) was 103%. For the same molecule, the viability, T/C (second compound 3.16 µM, first compound 1 µM) was 98%, the viability, T/C (second compound 3.16 µM, first compound 3.16 µM) was 104% and the viability, T/C (second compound 3.16 µM, first compound 10 µM) was 88.6%. The viability, T/C [11] was 101%, the viability, T/C [12] was 105% and the viability, T/C (second compound 10 µM, first compound 0.316 µM) was 99.2%. The viability, T/C (second compound 10 µM, first compound 1 µM) was 102%, the viability, T/C (second compound 10 µM, first compound 3.16 µM) was 87.7% and the viability, T/C (second compound 10 µM, first compound 10 µM) was 92.5%.

For `CC[C@@]1(O)C(=O)OCc2c1cc1n(c2=O)Cc2cc3c(CN(C)C)c(O)ccc3nc2-1` + Nc1ccc(C#CCN(C(=O)Cc2ncc(C(F)(F)F)cc2C(F)(F)F)c2ccc(F)cc2)nn1, the IC50 (second compound 0.0316 µM) was > 0.1 µM, the IC50 (second compound 0.1 µM) was > 0.1 µM and the IC50 (second compound 0.316 µM) was > 0.1 µM. The IC50 (second compound 1 µM) was > 0.1 µM, the IC50 (second compound 3.16 µM) was > 0.1 µM and the IC50 (second compound 10 µM) was > 0.1 µM. It also gave a viability, T/C (second compound 0.0316 µM, first compound 0.000316 µM) of 91.3%, a viability, T/C (second compound 0.0316 µM, first compound 0.001 µM) of 89.7% and a viability, T/C (second compound 0.0316 µM, first compound 0.00316 µM) of 94.6%. The viability, T/C (second compound 0.0316 µM, first compound 0.01 µM) was 83.6%, the viability, T/C [1] was 77.8% and the viability, T/C [2] was 63.3%. The viability, T/C (second compound 0.1 µM, first compound 0.000316 µM) was 108%, the viability, T/C (second compound 0.1 µM, first compound 0.001 µM) was 93% and the viability, T/C (second compound 0.1 µM, first compound 0.00316 µM) was 89.4%. It also gave a viability, T/C (second compound 0.1 µM, first compound 0.01 µM) of 82%, a viability, T/C [3] of 72.2% and a viability, T/C [4] of 63%. The viability, T/C (second compound 0.316 µM, first compound 0.000316 µM) was 96.7%, the viability, T/C (second compound 0.316 µM, first compound 0.001 µM) was 101% and the viability, T/C (second compound 0.316 µM, first compound 0.00316 µM) was 93%. For the same molecule, the viability, T/C (second compound 0.316 µM, first compound 0.01 µM) was 94.2%, the viability, T/C [5] was 77% and the viability, T/C [6] was 58.9%. For the same molecule, the viability, T/C (second compound 1 µM, first compound 0.000316 µM) was 100%, the viability, T/C (second compound 1 µM, first compound 0.001 µM) was 91.7% and the viability, T/C (second compound 1 µM, first compound 0.00316 µM) was 85.2%. It also gave a viability, T/C (second compound 1 µM, first compound 0.01 µM) of 85.3%, a viability, T/C [7] of 84.3% and a viability, T/C [8] of 54.7%. It also gave a viability, T/C (second compound 3.16 µM, first compound 0.000316 µM) of 98%, a viability, T/C (second compound 3.16 µM, first compound 0.001 µM) of 102% and a viability, T/C (second compound 3.16 µM, first compound 0.00316 µM) of 98.5%. The viability, T/C (second compound 3.16 µM, first compound 0.01 µM) was 83.2%, the viability, T/C [9] was 85.1% and the viability, T/C [10] was 59%. The viability, T/C (second compound 10 µM, first compound 0.000316 µM) was 98.5%, the viability, T/C (second compound 10 µM, first compound 0.001 µM) was 87.2% and the viability, T/C (second compound 10 µM, first compound 0.00316 µM) was 98.8%. It also gave a viability, T/C (second compound 10 µM, first compound 0.01 µM) of 98.8%, a viability, T/C [11] of 81.1% and a viability, T/C [12] of 63%.
